Laboratory results as given in paper PMC6321168, “Comparative Study on Excretive Characterization of Main Components in Herb Pair Notoginseng-Safflower and Single Herbs by LC–MS/MS” (Pharmaceutics, 2018).

Test: Fecal excretion study in rats after oral NS, SF or CNS (LC–MS/MS)
Format: in vivo
Conditions: rat feces
Method: The animal room was set at constant temperature of 20 ± 2 °C with humidity of 50 ± 20% and 12/12 h light/dark cycle.
Eighteen male rats were fasted for 12 h before starting the experiment. The rats were divided into three groups at random (n = 6) and received NS (60 mg/kg), SF (50 mg/kg), and NS (60 mg/kg) + SF (50 mg/kg), respectively, by oral gavage. The rats were placed in separate metabolic cages. The urine samples were collected at 0–2, 2–4, 4–6, 6–8, 8–12, 12–24, 24–36, 36–48, 48–72, 72–96, and 96–120 h. The feces samples were collected at 0–4, 4–8, 8–12, 12–24, 24–36, 36–48, 48–72, 72–96, and 96–120 h. The urine volume was recorded and the dry feces were measured for each collection period. Samples were stored at −80 °C until analysis.
Feces samples were homogenized in ultrapure water (1 g/15 mL), soaked for 30 min, ultrasonically extracted for 30 min and centrifuged at 9000 rpm for 8 min. An aliquot of 200 μL feces water extraction solution was mixed with 10 μL of IS and then extracted three times with water-saturated n-BuOH (150 μL). The upper organic phase was combined and evaporated to dryness using a ZLS-2 vacuum centrifugal concentrator. The residue was treated as the urine sample and a 1-μL aliquot was injected for LC–MS analysis.
Ultra fast liquid chromatography (UFLC) analysis was performed using a Shimadzu UFLC system (DGU-20A3R Degasser; LC-20AD pump; SIL-20AXR Autosampler; CTO-20AC Column Oven) (Nakagyo-Ku, Koyoto, Japan). […] Because of the different endogenous substances in the urine and feces samples, different elution gradients were used to alleviate the matrix effects for the analytes.
The mass spectrometric detection was performed on an ABSciex 4500 Qtrap mass spectrometer (ABSciex, Foster City, CA, USA) equipped with a negative electrospray ionization (ESI) interface using multiple reaction monitoring (MRM). The MS parameters were optimized under the selected ion monitoring conditions as follows: curtain gas, 35 psi; ionspray voltage, 4500 V; turbo gas temperature, 450 °C; GS1, 45 psi; GS2, 45 psi. All data were acquired and analyzed by Analyst software (Versions 1.6.2) from ABSciex.
The accumulative excretion percentage was calculated for each analyte as follows. Excretion at time (t) = [concentration of the analyte (ng/mL) at t] × total urine (or feces) volume (mL) at t. The cumulative excretion up to time t (mg) was expressed as a percent (%) cumulative excretion by dividing by the total amount of the analyte ingested (mg): % Cumulative Excretion = 100 × (Σt excretiont) total ingested.

concentration at 4 h (male, Sprague Dawley, oral CNS 110 mg/kg, 4 h): 1.1 ± 1.52 µg/mL | concentration at 8 h (male, Sprague Dawley, oral CNS 110 mg/kg, 8 h): 1.71 ± 0.054 µg/mL | concentration at 12 h (male, Sprague Dawley, oral CNS 110 mg/kg, 12 h): 1.11 ± 0.221 µg/mL | concentration at 24 h (male, Sprague Dawley, oral CNS 110 mg/kg, 24 h): 0.98 ± 0.138 µg/mL | concentration at 36 h (male, Sprague Dawley, oral CNS 110 mg/kg, 36 h): 0.959 ± 0.04 µg/mL | concentration at 48 h (male, Sprague Dawley, oral CNS 110 mg/kg, 48 h): 0.943 ± 0.049 µg/mL | concentration at 72 h (male, Sprague Dawley, oral CNS 110 mg/kg, 72 h): 0.324 ± 0.249 µg/mL | concentration at 96 h (male, Sprague Dawley, oral CNS 110 mg/kg, 96 h): 0.024 ± 0.024 µg/mL | concentration at 4 h (male, Sprague Dawley, oral NS 60 mg/kg, 4 h): 1.51 ± 0.256 µg/mL | concentration at 8 h (male, Sprague Dawley, oral NS 60 mg/kg, 8 h): 0.473 ± 0.016 µg/mL | concentration at 12 h (male, Sprague Dawley, oral NS 60 mg/kg, 12 h): 1.09 ± 0.088 µg/mL | concentration at 24 h (male, Sprague Dawley, oral NS 60 mg/kg, 24 h): 2.04 ± 0.055 µg/mL | concentration at 36 h (male, Sprague Dawley, oral NS 60 mg/kg, 36 h): 2.02 ± 0.054 µg/mL | concentration at 48 h (male, Sprague Dawley, oral NS 60 mg/kg, 48 h): 2.08 ± 0.047 µg/mL | concentration at 72 h (male, Sprague Dawley, oral NS 60 mg/kg, 72 h): 0.116 ± 0.008 µg/mL | concentration at 96 h (male, Sprague Dawley, oral NS 60 mg/kg, 96 h): 0.023 ± 0.001 µg/mL | concentration at 120 h (male, Sprague Dawley, oral NS 60 mg/kg, 120 h): 0.022 ± 0.002 µg/mL | Accumulative excretion amount (oral CNS 110 mg/kg, 4 h): 14.286 ± 20.907 µg | Accumulative excretion percentage (oral CNS 110 mg/kg, 4 h): 0.474±0.681% | Excretion amount (oral CNS 110 mg/kg, 4 h): 14.286 ± 20.907 µg | Accumulative excretion amount (oral CNS 110 mg/kg, 8 h): 39.952 ± 21.244 µg | Accumulative excretion percentage (oral CNS 110 mg/kg, 8 h): 1.303±0.695% | Accumulative excretion amount (oral CNS 110 mg/kg, 12 h): 56.860 ± 20.559 µg | Excretion amount (oral CNS 110 mg/kg, 12 h): 16.908 ± 6.636 µg | Accumulative excretion amount (oral CNS 110 mg/kg, 24 h): 71.363 ± 24.096 µg | Accumulative excretion percentage (oral CNS 110 mg/kg, 24 h): 2.331±0.796% | Excretion amount (oral CNS 110 mg/kg, 24 h): 14.504 ± 4.143 µg | Accumulative excretion amount (oral CNS 110 mg/kg, 36 h): 85.729 ± 27.211 µg | Accumulative excretion percentage (oral CNS 110 mg/kg, 36 h): 2.802±0.894% | Excretion amount (oral CNS 110 mg/kg, 36 h): 14.365 ± 4.335 µg | Accumulative excretion amount (oral CNS 110 mg/kg, 48 h): 99.901 ± 30.374 µg | Accumulative excretion percentage (oral CNS 110 mg/kg, 48 h): 3.265±0.994% | Excretion amount (oral CNS 110 mg/kg, 48 h): 14.173 ± 4.533 µg | Accumulative excretion amount (oral CNS 110 mg/kg, 72 h): 105.113 ± 30.466 µg | Accumulative excretion percentage (oral CNS 110 mg/kg, 72 h): 3.431±0.996% | Excretion amount (oral CNS 110 mg/kg, 72 h): 5.212 ± 4.367 µg | Accumulative excretion amount (oral CNS 110 mg/kg, 96 h): 105.509 ± 30.482 µg | Accumulative excretion percentage (oral CNS 110 mg/kg, 96 h): 3.441±0.996% | Excretion amount (oral CNS 110 mg/kg, 96 h): 0.396 ± 0.402 µg | Accumulative excretion amount (oral CNS 110 mg/kg, 120 h): 105.509 ± 30.482 µg | Accumulative excretion percentage (oral CNS 110 mg/kg, 120 h): 3.442±0.994% | Accumulative excretion amount (oral NS 60 mg/kg, 4 h): 21.063 ± 5.410 µg | Accumulative excretion percentage (oral NS 60 mg/kg, 4 h): 0.612±0.145% | Excretion amount (oral NS 60 mg/kg, 4 h): 21.063 ± 5.410 µg | Accumulative excretion amount (oral NS 60 mg/kg, 8 h): 27.855 ± 7.375 µg | Accumulative excretion percentage (oral NS 60 mg/kg, 8 h): 0.798±0.216% | Excretion amount (oral NS 60 mg/kg, 8 h): 6.792 ± 2.122 µg | Accumulative excretion percentage (oral NS 60 mg/kg, 12 h): 1.244±0.343% | Excretion amount (oral NS 60 mg/kg, 12 h): 15.587 ± 4.879 µg | Accumulative excretion amount (oral NS 60 mg/kg, 24 h): 72.682 ± 20.662 µg | Accumulative excretion percentage (oral NS 60 mg/kg, 24 h): 2.071±0.592% | Excretion amount (oral NS 60 mg/kg, 24 h): 29.239 ± 8.754 µg | Accumulative excretion amount (oral NS 60 mg/kg, 36 h): 101.659 ± 29.524 µg | Accumulative excretion percentage (oral NS 60 mg/kg, 36 h): 2.904±0.845% | Excretion amount (oral NS 60 mg/kg, 36 h): 28.977 ± 8.942 µg | Accumulative excretion amount (oral NS 60 mg/kg, 48 h): 131.700 ± 39.092 µg | Accumulative excretion percentage (oral NS 60 mg/kg, 48 h): 3.751±1.111% | Excretion amount (oral NS 60 mg/kg, 48 h): 30.041 ± 9.594 µg | Accumulative excretion amount (oral NS 60 mg/kg, 72 h): 133.372 ± 39.629 µg | Accumulative excretion percentage (oral NS 60 mg/kg, 72 h): 3.801±1.132% | Excretion amount (oral NS 60 mg/kg, 72 h): 1.673 ± 0.554 µg | Accumulative excretion percentage (oral NS 60 mg/kg, 96 h): 3.814±1.133% | Excretion amount (oral NS 60 mg/kg, 96 h): 0.327 ± 0.104 µg | Accumulative excretion percentage (oral NS 60 mg/kg, 120 h): 3.824±1.132% | Excretion amount (oral NS 60 mg/kg, 120 h): 0.315 ± 0.110 µg
Compound: CC(C)=CCC[C@](C)(O[C@@H]1O[C@H](CO)[C@@H](O)[C@H](O)[C@H]1O)[C@H]1CC[C@]2(C)[C@@H]1[C@H](O)C[C@@H]1[C@@]3(C)CC[C@H](O)C(C)(C)[C@@H]3[C@@H](O[C@@H]3O[C@H](CO)[C@@H](O)[C@H](O)[C@H]3O)C[C@]12C [ginsenoside Rg1]
